Assays:
[1] = system: HT-29; assay: In vitro inhibition of proliferation in ras transformed cells on the HT-29 (Human tumor) cell line; format: functional, cell-based
[2] = target: Choline kinase alpha (Homo sapiens, UniProt P35790); assay: Ex vivo inhibitory activity against human choline kinase was determined
Choline kinase alpha, sequence (P35790 whole entry): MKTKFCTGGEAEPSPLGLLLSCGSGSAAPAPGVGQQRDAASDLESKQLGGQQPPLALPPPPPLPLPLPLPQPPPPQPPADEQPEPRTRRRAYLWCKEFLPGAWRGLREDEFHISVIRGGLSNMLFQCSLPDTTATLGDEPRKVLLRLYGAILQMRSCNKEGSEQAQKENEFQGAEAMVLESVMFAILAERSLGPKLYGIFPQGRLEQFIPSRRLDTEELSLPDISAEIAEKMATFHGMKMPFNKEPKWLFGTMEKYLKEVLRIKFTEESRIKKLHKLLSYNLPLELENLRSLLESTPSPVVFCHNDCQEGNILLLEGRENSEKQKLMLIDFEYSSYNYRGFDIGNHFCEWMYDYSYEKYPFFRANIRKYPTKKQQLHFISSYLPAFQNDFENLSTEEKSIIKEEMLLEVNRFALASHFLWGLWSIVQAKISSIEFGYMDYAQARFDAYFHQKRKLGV

Row | SMILES | IC50 [1] | IC50 [2]
1 | c1cc2cc(c1)CNc1cc[n+](cc1)Cc1cccc(c1)C[n+]1ccc(cc1)NC2 | > 100 µM | 13.2 µM
2 | c1cc2cc(c1)CNc1cc[n+](cc1)Cc1ccc(cc1)C[n+]1ccc(cc1)NC2 | 28.8 µM | 0.3 µM
3 | c1cc2ccc1CNc1cc[n+](cc1)Cc1ccc(cc1)C[n+]1ccc(cc1)NC2 | 36.9 µM | 2.1 µM
4 | CN(c1ccc(Cl)cc1)c1cc[n+](Cc2cc(C[n+]3ccc(N(C)c4ccc(Cl)cc4)cc3)cc(C[n+]3ccc(N(C)c4ccc(Cl)cc4)cc3)c2)cc1 |  | 1.4 µM
5 | c1cc2cc(c1)C[n+]1ccc(cc1)NCc1ccc(cc1)CNc1cc[n+](cc1)C2 | 58.6 µM | 24.8 µM
